According to patent US11045473B2, “Compositions and methods for therapy of prostate cancer using drug combinations to target polyamine biosynthesis and related pathways” (Health Research, Inc., priority 2015, dated 2021):
“Also recorded” adds a separate entry of the source.

Columns and labels:
LNCaP = experiment: Proliferation / IC50 by trypan blue cell counts, LNCaP; type: cell-based, human; details: for effect on cell growth: 8 and 12 days; for IC50: Homo sapiens
Procedure: A transition state analog inhibitor of MTAP, Methylthio-DaDMe-Immucillin-A (MTDIA) was previously described and shown to be effective following a 6 or 12 day treatment at ˜10 and 100 nM MTDIA when 20 uM MTA was added to the media in both lung adenocarcinoma cell lines and head and neck squamous carcinoma cell lines, respectively [Basu I, et al. J Biol Chem. 2007; 282:21477-21486; Basu I, et al. J Biol Chem. 2011; 286:4902-491]. 32]. We synthesized MTDIA and the analytical data on the synthesized compound are shown in FIGS. 8A and 8B with the scheme used for synthesis shown in FIG. 6. […] In all three cell lines, the proliferation curves after 12 days of treatment show an IC50 of MTDIA>1 mM in the absence of MTA (FIG. 5B), but in the 10-100 nM range with the addition of 10 or 20 μM MTA. […] Nanomolar range IC50 values are highlighted.
IC50—The MTAP inhibitor (3R,4S)-1-[(9-Deaza-adenin-9-yl)methyl]-3-hydroxy-4-(methylthiomethyl)-pyrrolidine, or MT-DADMe-Immucillin-A (MTDIA) was synthesized following the synthesis scheme shown in FIG. 6 and based on a known approach. Cells were seeded at 125,000 cells/well (PC-3, DU145, LNCaP) in triplicate in 2 mLs of RPMI medium supplemented with 10% fetal bovine serum, and 1% penicillin streptomycin. After 24 hours the MTDIA and/or MTA was added at the indicated concentrations. Both medium and drug were refreshed every 48 hours. Every 96 hours the cells were trypsinized, ˜2% of cells were removed and counted by trypan blue exclusion and the rest were replated into a larger vessel.

spermine synthase [1] = experiment: Western blot of spermine synthase in FaDu; type: cell-based, human; details: treatment with MTDIA
Procedure: (§1) FIG. 9. (A) Proliferation curves for LNCaP, DU145 and PC3 treated with MTDIA in the absence or presence of 10 or 20 uM MTA, for 4 and (B) 8 days. Results of biological triplicates are shown with absolute IC50s indicated for each condition. (C) Western blot analysis of FaDu, LNCaP, and DU145 cells after indicated treatments of MTA (0, 10, or 20 uM) or the respective 4 day IC25 and IC50 dose of MTDIA for each cell line plus or minus MTA immunoblotted with antibodies against MTAP, SMS, and SRM, with B-actin as a loading control. Western blot images are representative of biological triplicates. Band intensity values normalized to B-actin relative to control conditions are indicated below the respective band.
(§2) Western Blotting—Whole cell extracts were prepared in RIPA buffer (150 mM NaCl, 1.0% NP-40, 0.5% deoxycholate, 0.1% SDS, 50 mM Tris-HCl pH 8.0, 5 mM EDTA and 0.5 mM PMSF) supplemented with 1× proteinase inhibitor. Protein concentrations were determined by Bradford Assay (Thermo Scientific, Cat #1856209). Samples were resolved on polyacrylamide gels and transferred onto PVDF membranes (Biorad, Cat #162-0177). Blots were incubated with primary antibodies overnight at 4° and with secondaries for 1.5 hours at room temperature. Signals were visualized using Pierce ECL western blotting substrate (Thermo Scientific, Cat #32209) and exposed to film. […]

spermine synthase [2] = experiment: Western blot of spermine synthase in LNCaP; type: cell-based, human; details: treatment with MTDIA
Procedure: as §1, §2

LNCaP xenograft = LNCaP xenograft growth in nude mice, MTDIA in the drinking water; type: in vivo
Procedure: Human cell line xenografts with pharmacological treatment—1×10^6 wild type LNCaP cells were subcutaneously injected onto the flank of pelleted nude mice. At time of injection animals were randomly assigned to one of the following three groups; control, 9 or 21 mg/kg MTDIA in the drinking water with 20 mice in each group. Tumor measurements were assessed and recorded twice a week. Animals were sacrificed once tumors reached 2 cm3 or at the end point of the experiment (91 days).

CSC[C@H]1CN(Cc2c[nH]c3c(N)ncnc23)C[C@@H]1O [MTDIA, (3R,4S)-1-[(9-Deaza-adenin-9-yl)methyl]-3-hydroxy-4-(methylthiomethyl)-pyrrolidine]
effect on cell growth (LNCaP; 100 nM MTDIA, with 20 μM MTA): dramatic effect on cell growth
effect on cell growth (LNCaP; 100 nM MTDIA, without MTA): little to no effect
effect on growth (LNCaP; 100 nM MTDIA, 4 days, with or without 20 μM MTA): limited effects on growth
blocking cell growth (LNCaP; 6 days, low concentrations of MTDIA): no effect at blocking cell growth
IC50 (LNCaP; 96 h, 4 days, 0 μM MTA): > 1000 µM
IC50 (LNCaP; 96 h, 4 days, 10 μM MTA): > 1000 µM
IC50 (LNCaP; 96 h, 4 days, 20 μM MTA): 200 µM
IC50 (LNCaP; 192 h, 8 days, 0 μM MTA): > 1000 µM
IC50 (LNCaP; 192 h, 8 days, 10 μM MTA): 1 µM
IC50 (LNCaP; 192 h, 8 days, 20 μM MTA): 0.085 µM
IC50 (LNCaP; 288 h, 12 days, 0 μM MTA): > 1000 µM
IC50 (LNCaP; 288 h, 12 days, 10 μM MTA): 0.011 µM
IC50 (LNCaP; 288 h, 12 days, 20 μM MTA): 0.014 µM
IC50 (LNCaP; 288 h, 12 days, with 10 or 20 μM MTA): 0.01 to 0.1 µM
spermine synthase expression (spermine synthase [1]): downregulated
spermine synthase expression (spermine synthase [2]): upregulated
xenograft growth (LNCaP xenograft; 21 mg/kg MTDIA daily in the drinking water, vs untreated control and 9 mg/kg dose): significant (p<0.001) block in xenograft growth; also recorded: dramatically blocked LNCaP xenograft growth
xenograft growth after drug removal (LNCaP xenograft; 21 mg/kg group, drug removed at day 61, carried out to day 91): significant block in xenograft growth was maintained
